ChEMBL document CHEMBL5346943, “Discovery and Structural Optimization of Novel Quinolone Derivatives as Potent Irreversible Pan-Fibroblast Growth Factor Receptor Inhibitors for Treating Solid Tumors” (J Med Chem, 2023)

Columns and labels:
[1] = system: Huh-7; assay: Antiproliferative activity against human Huh-7 cells incubated for 72 hrs by Cell counting kit 8 method; format: functional, cell-based; settings: Huh-7, 72 h
[2] = system: Hep 3B2; assay: Antiproliferative activity against human Hep3B cells incubated for 72 hrs by Cell counting kit 8 method; format: functional, cell-based
[3] = Tmax in Sprague-Dawley rat measured at 2 mg/kg, iv for 0.083 to 24 hrs by LC-MS/MS analysis; format: ADME, organism-based; settings: in vivo, time 0.083-24 hrs
[4] = AUC (0 to infinity) in Sprague-Dawley rat measured at 2 mg/kg, iv for 0.083 to 24 hrs by LC-MS/MS analysis; format: ADME, organism-based; design: time lower 0.083 hrs, dose 2 mg/kg, time upper 24 hrs, route iv; settings: in vivo
[5] = Clearance in Sprague-Dawley rat measured at 2 mg/kg, iv for 0.083 to 24 hrs by LC-MS/MS analysis; format: ADME, organism-based; settings: in vivo, time 0.083-24 hrs
[6] = Volume of distribution at steady state in Sprague-Dawley rat measured at 2 mg/kg, iv for 0.083 to 24 hrs by LC-MS/MS analysis; format: ADME, organism-based; settings: in vivo, time 0.083-24 hrs, read-out: Vdss
[7] = Half life in Sprague-Dawley rat measured at 10 mg/kg, po for 0.083 to 24 hrs by LC-MS/MS analysis; format: ADME, organism-based; settings: in vivo, time 0.083-24 hrs
[8] = Tmax in Sprague-Dawley rat measured at 10 mg/kg, po for 0.083 to 24 hrs by LC-MS/MS analysis; format: ADME, organism-based; settings: in vivo, time 0.083-24 hrs
[9] = AUC (0 to infinity) in Sprague-Dawley rat measured at 10 mg/kg, po for 0.083 to 24 hrs by LC-MS/MS analysis; format: ADME, organism-based; design: dose 10 mg/kg, time upper 24 hrs, time lower 0.083 hrs, route po; settings: in vivo
[10] = MRT (0 to t) in Sprague-Dawley rat measured at 10 mg/kg, po for 0.083 to 24 hrs by LC-MS/MS analysis; format: ADME, organism-based; settings: in vivo, time 0.083-24 hrs
[11] = Cmax in Sprague-Dawley rat measured at 100 mg/kg, po for 0.083 to 24 hrs by LC-MS/MS analysis; format: ADME, organism-based; design: time upper 24 hrs, dose 100 mg/kg, time lower 0.083 hrs, route po; settings: in vivo
[12] = Half life in Sprague-Dawley rat measured at 30 mg/kg, po for 0.083 to 24 hrs by LC-MS/MS analysis; format: ADME, organism-based; settings: in vivo, time 0.083-24 hrs
[13] = Half life in Sprague-Dawley rat measured at 100 mg/kg, po for 0.083 to 24 hrs by LC-MS/MS analysis; format: ADME, organism-based; settings: in vivo, time 0.083-24 hrs
[14] = Tmax in Sprague-Dawley rat measured at 30 mg/kg, po for 0.083 to 24 hrs by LC-MS/MS analysis; format: ADME, organism-based; settings: in vivo, time 0.083-24 hrs
[15] = Tmax in Sprague-Dawley rat measured at 100 mg/kg, po for 0.083 to 24 hrs by LC-MS/MS analysis; format: ADME, organism-based; settings: in vivo, time 0.083-24 hrs
[16] = AUC(0 to t) in Sprague-Dawley rat measured at 60 mg/kg, po for 0.083 to 24 hrs by LC-MS/MS analysis; format: ADME, organism-based; design: time upper 24 hrs, time lower 0.083 hrs, dose 60 mg/kg, route po; settings: in vivo
[17] = system: MV4-11; assay: Antiproliferative activity against human MV4-11 cells incubated for 72 hrs by Cell counting kit 8 method; format: functional, cell-based; settings: MV4-11, 72 h
[18] = system: A549; assay: Antiproliferative activity against human A549 cells incubated for 72 hrs by Cell counting kit 8 method; format: functional, cell-based; settings: A549, 72 h
[19] = system: SNU-16; assay: Antiproliferative activity against human SNU-16 cells incubated for 72 hrs by Cell counting kit 8 method; format: functional, cell-based; settings: SNU-16, 72 h
[20] = Toxicity in […] nude mouse xenografted with Huh-7 cells assessed as change in body weight once daily at 15 to 60 mg/kg, po for 24 days relative to control; format: organism-based; settings: in vivo, 576 h, dose 15-60 mg/kg, time 24 day

IC50 [1]: 12.6 nM | Tmax [3]: 4.8 min | AUC(0-inf) [4]: 572 ng·h/mL | clearance [5]: 58 mL/min/kg | Vd [6]: 1.32 L/kg | half-life [7]: 149 min | Tmax [8]: 15 min | AUC(0-inf) [9]: 1970 ng·h/mL | MRT last [10]: 119 min | Cmax [11]: 14600 ng/mL | half-life [12]: 193 min | half-life [13]: 81.6 min | Tmax [14]: 30 min | Tmax [15]: 30 min | AUC(0-t) [16]: 14900 ng·h/mL | IC50 [17]: > 10000 nM | IC50 [18]: > 10000 nM | IC50 [19]: 1.8 nM
SMILES: C=CC(=O)N1CCC(c2cc3c(Oc4ccc(NC(=O)NC5CC5)c(Cl)c4)ccnc3cc2OC)CC1
IC50 [2]: 52.6 nM | Activity [20]: Active
